In patent publication US7550456B2, “Substituted aryl cycloalkanoyl derivatives and methods of their use” (Wyeth, priority 2003, dated 2009) one finds inhibition data, which are given here for 34 molecules.

Where a name gives a salt, the structure may show the parent alone.

In this experiment the target is T1, human hNET (Homo sapiens, UniProt P23975).
T1 construct: expressed in transfected cells; host or cells: MDCK-Net6 (MDCK cells, stably transfected)
Briefly: Norepinephrine (NE) uptake assay in MDCK-Net6 cells. In kind it is cell-based. As to conditions: 1 μM test compound, [3H]NE uptake, read-out: % Inhibition @ 1 μM (hNET). In short, it runs like this: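 Radiolabelled NE uptake was counted by scintillation after NaOH lysis, with 1 µM desipramine defining non-specific uptake. EC50 came from a logistic dose-response fit.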

T1 sequence (P23975 whole entry): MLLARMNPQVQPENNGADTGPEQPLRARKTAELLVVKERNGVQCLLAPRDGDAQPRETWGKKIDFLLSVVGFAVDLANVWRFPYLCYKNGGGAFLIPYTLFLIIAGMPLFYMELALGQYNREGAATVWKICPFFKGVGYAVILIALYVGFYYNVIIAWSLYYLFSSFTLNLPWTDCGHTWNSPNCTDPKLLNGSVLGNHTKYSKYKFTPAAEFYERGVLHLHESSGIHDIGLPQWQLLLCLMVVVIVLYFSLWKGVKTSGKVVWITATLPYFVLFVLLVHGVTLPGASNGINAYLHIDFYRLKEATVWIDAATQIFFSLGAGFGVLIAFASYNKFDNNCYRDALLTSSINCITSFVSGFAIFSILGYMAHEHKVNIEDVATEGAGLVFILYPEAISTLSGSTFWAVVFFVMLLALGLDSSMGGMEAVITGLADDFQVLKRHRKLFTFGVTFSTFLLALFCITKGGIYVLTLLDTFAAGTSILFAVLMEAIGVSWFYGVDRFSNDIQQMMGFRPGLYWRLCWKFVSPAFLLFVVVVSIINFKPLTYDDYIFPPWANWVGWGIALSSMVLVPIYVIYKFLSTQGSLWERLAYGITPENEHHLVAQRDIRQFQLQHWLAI

`CN1CCN(CC(c2ccc(OCc3ccc(Br)cc3F)c(Cl)c2)C2(O)CCCCC2)CC1` (stereo not shown) [Example 426, 1-[1-{4-[(4-bromo-2-fluorobenzyl)oxy]-3-chlorophenyl}-2-(4-methylpiperazin-1-yl)ethyl]cyclohexanol dihydrochloride]: the inhibition (commonly how much of the control response was suppressed) at 1 µM turned out to be 84%. Regarding `OC1(C(CN2CCNCC2)c2ccc(OCc3ccc4ccccc4c3)c(Cl)c2)CCCCC1` (stereo not shown) [Example 427, 1-{1-[3-chloro-4-(2-naphthylmethoxy)phenyl]-2-piperazin-1-ylethyl}cyclohexanol dihydrochloride], the inhibition at 1 µM was 33%. In the case of `OC1(C(CN2CCNCC2)c2ccc(OCc3ccc4ccccc4c3)cc2)CCCCC1` (stereo not shown) [Example 432, 1-{1-[4-(2-naphthylmethoxy)phenyl]-2-piperazin-1-ylethyl}cyclohexanol], the inhibition at 1 µM stood at 64%. The same measure for `CN1CCN(CC(c2ccc(OCc3ccc4ccccc4c3)cc2)C2(O)CCCCC2)CC1` (stereo not shown) [Example 433, 1-{2-(4-methylpiperazin-1-yl)-1-[4-(2-naphthylmethoxy)phenyl]ethyl}cyclohexanol]: 49%.

Consider `OC1(C(CN2CCNCC2)c2ccc(OCc3ccc(Br)cc3F)cc2)CCCCC1` (stereo not shown) [Example 434, 1-(1-{4-[(4-bromo-2-fluorobenzyl)oxy]phenyl}-2-piperazin-1-ylethyl)cyclohexanol], for which the inhibition at 1 µM is 34%. As for `CN1CCN(CC(c2ccc(OCc3ccc(Br)cc3F)cc2)C2(O)CCCCC2)CC1` (stereo not shown) [Example 435, 1-[1-{4-[(4-bromo-2-fluorobenzyl)oxy]phenyl}-2-(4-methylpiperazin-1-yl)ethyl]cyclohexanol dihydrochloride], the inhibition at 1 µM worked out at 85%. Consider `OC1(C(CN2CCNCC2)c2ccc(OCc3ccc(C(F)(F)F)cc3)cc2)CCCCC1` (stereo not shown) [Example 436, 1-[2-piperazin-1-yl-1-(4-{[4-(trifluoromethyl)benzyl]oxy}phenyl)ethyl]cyclohexanol dihydrochloride], for which the inhibition at 1 µM was 63%. With `CN1CCN(CC(c2ccc(OCc3ccc(C(F)(F)F)cc3)cc2)C2(O)CCCCC2)CC1` (stereo not shown) [Example 437, 1-[2-(4-methylpiperazin-1-yl)-1-(4-{[4-(trifluoromethyl)benzyl]oxy}phenyl)ethyl]cyclohexanol dihydrochloride], the inhibition at 1 µM was 38%.

On to `OC1(C(CN2CCNCC2)c2ccc(OCc3cccc(C(F)(F)F)c3)cc2)CCCCC1` (stereo not shown) [Example 438, 1-[2-piperazin-1-yl-1-(4-{[3-(trifluoromethyl)benzyl]oxy}phenyl)ethyl]cyclohexanol dihydrochloride], for which the inhibition at 1 µM was determined as 69%. Consider `CN1CCN(CC(c2ccc(OCc3cccc(C(F)(F)F)c3)cc2)C2(O)CCCCC2)CC1` (stereo not shown) [Example 439, 1-[2-(4-methylpiperazin-1-yl)-1-(4-{[3-(trifluoromethyl)benzyl]oxy}phenyl)ethyl]cyclohexanol dihydrochloride], for which the inhibition at 1 µM was found to be 79%. Regarding `OC1(C(CN2CCNCC2)c2ccc(OCc3ccccc3C(F)(F)F)cc2)CCCCC1` (stereo not shown) [Example 440, 1-[2-piperazin-1-yl-1-(4-{[2-(trifluoromethyl)benzyl]oxy}phenyl)ethyl]cyclohexanol dihydrochloride], the inhibition at 1 µM was found to be 28%. Consider `CN1CCN(CC(c2ccc(OCc3ccccc3C(F)(F)F)cc2)C2(O)CCCCC2)CC1` (stereo not shown) [Example 441, 1-[2-(4-methylpiperazin-1-yl)-1-(4-{[2-(trifluoromethyl)benzyl]oxy}phenyl)ethyl]cyclohexanol dihydrochloride], for which the inhibition at 1 µM was found to be 33%. As to `COc1cc(C(CN2CCNCC2)C2(O)CCCCC2)ccc1OCc1ccccc1` (stereo not shown) [Example 442, 1-{1-[4-(benzyloxy)-3-methoxyphenyl]-2-piperazin-1-ylethyl}cyclohexanol dihydrochloride], the inhibition at 1 µM stood at 57%. On to `COc1cc(C(CN2CCN(C)CC2)C2(O)CCCCC2)ccc1OCc1ccccc1` (stereo not shown) [Example 443, 1-[1-[4-(benzyloxy)-3-methoxyphenyl]-2-(4-methylpiperazin-1-yl)ethyl]cyclohexanol dihydrochloride], for which the inhibition at 1 µM stood at 90%.

On to `COc1cc(C(CN2CCNCC2)C2(O)CCCCC2)ccc1OCc1ccc2ccccc2c1` (stereo not shown) [Example 444, 1-{1-[3-methoxy-4-(2-naphthylmethoxy)phenyl]-2-piperazin-1-ylethyl}cyclohexanol dihydrochloride], for which the inhibition at 1 µM was 98%. With `COc1cc(C(CN2CCN(C)CC2)C2(O)CCCCC2)ccc1OCc1ccc2ccccc2c1` (stereo not shown) [Example 445, 1-[1-[3-methoxy-4-(2-naphthylmethoxy)phenyl]-2-(4-methylpiperazin-1-yl)ethyl]cyclohexanol dihydrochloride], the inhibition at 1 µM came out at 22%. With `COc1cc(C(CN2CCNCC2)C2(O)CCCCC2)ccc1OCc1ccc(Br)cc1F` (stereo not shown) [Example 446, 1-(1-{4-[(4-bromo-2-fluorobenzyl)oxy]-3-methoxyphenyl}-2-piperazin-1-ylethyl)cyclohexanol], the inhibition at 1 µM was 69%. For the molecule `COc1cc(C(CN2CCN(C)CC2)C2(O)CCCCC2)ccc1OCc1ccc(Br)cc1F` (stereo not shown) [Example 447, 1-[1-{4-[(4-bromo-2-fluorobenzyl)oxy]-3-methoxyphenyl}-2-(4-methylpiperazin-1-yl)ethyl]cyclohexanol], the inhibition at 1 µM was 97%. In the case of `COc1cc(C(CN2CCNCC2)C2(O)CCCCC2)ccc1OCc1ccc(C(F)(F)F)cc1` (stereo not shown) [Example 448, 1-[1-(3-methoxy-4-{[4-(trifluoromethyl)benzyl]oxy}phenyl)-2-piperazin-1-ylethyl]cyclohexanol dihydrochloride], the inhibition at 1 µM worked out at 78%. In the case of `COc1cc(C(CN2CCN(C)CC2)C2(O)CCCCC2)ccc1OCc1ccc(C(F)(F)F)cc1` (stereo not shown) [Example 449, 1-[1-(3-methoxy-4-{[4-(trifluoromethyl)benzyl]oxy}phenyl)-2-(4-methylpiperazin-1-yl)ethyl]cyclohexanol dihydrochloride], the inhibition at 1 µM was 88%. For the molecule `OC1(C(CN2CCNCC2)c2ccc(OCCc3ccccc3)c(Cl)c2)CCCCC1` (stereo not shown) [Example 452, 1-{1-[3-chloro-4-(2-phenylethoxy)phenyl]-2-piperazin-1-ylethyl}cyclohexanol dihydrochloride], the inhibition at 1 µM is 35%. On to `CN1CCN(CC(c2ccc(OCCc3ccccc3)c(Cl)c2)C2(O)CCCCC2)CC1` (stereo not shown) [Example 453, 1-[1-[3-chloro-4-(2-phenylethoxy)phenyl]-2-(4-methylpiperazin-1-yl)ethyl]cyclohexanol dihydrochloride], for which the inhibition at 1 µM turned out to be 82%.

Turning to `COc1cccc(COc2ccc(C(CN3CCNCC3)C3(O)CCCCC3)cc2Cl)c1` (stereo not shown) [Example 454, 1-(1-{3-chloro-4-[(3-methoxybenzyl)oxy]phenyl}-2-piperazin-1-ylethyl)cyclohexanol dihydrochloride], the inhibition at 1 µM was 99%.

With `COc1cccc(COc2ccc(C(CN3CCN(C)CC3)C3(O)CCCCC3)cc2Cl)c1` (stereo not shown) [Example 455, 1-[1-{3-chloro-4-[(3-methoxybenzyl)oxy]phenyl}-2-(4-methylpiperazin-1-yl)ethyl]cyclohexanol dihydrochloride], the inhibition at 1 µM came out at 99%.

For the molecule `COc1ccccc1COc1ccc(C(CN2CCNCC2)C2(O)CCCCC2)cc1Cl` (stereo not shown) [Example 456, 1-(1-{3-chloro-4-[(2-methoxybenzyl)oxy]phenyl}-2-piperazin-1-ylethyl)cyclohexanol dihydrochloride], the inhibition at 1 µM was 90%. As for `COc1ccccc1COc1ccc(C(CN2CCN(C)CC2)C2(O)CCCCC2)cc1Cl` (stereo not shown) [Example 457, 1-[1-{3-chloro-4-[(2-methoxybenzyl)oxy]phenyl}-2-(4-methylpiperazin-1-yl)ethyl]cyclohexanol dihydrochloride], the inhibition at 1 µM amounted to 77%. `OC1(C(CN2CCNCC2)c2ccc(OCCc3ccccc3)cc2)CCCCC1` (stereo not shown) [Example 459, 1-{1-[4-(2-phenylethoxy)phenyl]-2-piperazin-1-ylethyl}cyclohexanol dihydrochloride]: the inhibition at 1 µM was found to be 58%. As for `CN1CCN(CC(c2ccc(OCCc3ccccc3)cc2)C2(O)CCCCC2)CC1` (stereo not shown) [Example 460, 1-{2-(4-methylpiperazin-1-yl)-1-[4-(2-phenylethoxy)phenyl]ethyl}cyclohexanol dihydrochloride], the inhibition at 1 µM was determined as 82%. Regarding `OC1(C(CN2CCNCC2)c2ccc(OCCc3ccc(F)cc3)cc2)CCCCC1` (stereo not shown) [Example 462, 1-(1-{4-[2-(4-fluorophenyl)ethoxy]phenyl}-2-piperazin-1-ylethyl)cyclohexanol dihydrochloride], the inhibition at 1 µM was 47%. Regarding `CN1CCN(CC(c2ccc(OCCc3ccc(F)cc3)cc2)C2(O)CCCCC2)CC1` (stereo not shown) [Example 463, 1-[1-{4-[2-(4-fluorophenyl)ethoxy]phenyl}-2-(4-methylpiperazin-1-yl)ethyl]cyclohexanol dihydrochloride], the inhibition at 1 µM came out at 69%. As for `OC1(C(CN2CCNCC2)c2ccc(OCCc3cccc4ccccc34)cc2)CCCCC1` (stereo not shown) [Example 464, 1-(1-{4-[2-(1-naphthyl)ethoxy]phenyl}-2-piperazin-1-ylethyl)cyclohexanol dihydrochloride], the inhibition at 1 µM is 33%.

For `COc1ccc(CCOc2ccc(C(CN3CCN(C)CC3)C3(O)CCCCC3)cc2)cc1` (stereo not shown) [Example 466, 1-[1-{{4-[2-(4-methoxyphenyl)ethoxy]phenyl}-2-(4-methylpiperazin-1-yl)ethyl]cyclohexanoldihydrochloride], the inhibition at 1 µM came to 20%. Then `CN1CCN(CC(c2ccc(OCC3CCCCC3)cc2)C2(O)CCCCC2)CC1` (stereo not shown) [Example 468, 1-[1-[4-(cyclohexylmethoxy)phenyl]-2-(4-methylpiperazin-1-yl)ethyl]cyclohexanol dihydrochloride], with 0%; and `C[C@@H](Oc1ccc(C(CN2CCN(C)CC2)C2(O)CCCCC2)cc1)c1ccccc1` (stereo partly drawn) [Example 469, 1-(2-(4-methylpiperazin-1-yl)-1-{4-[(1R)-1-phenylethoxy]phenyl}ethyl)cyclohexanol dihydrochloride], with 12%.
